This test deals with STING pathway. Description: STING pathway activation in THP1-Dual cells, NFκB pathway SEAP reporter. The class given is cell-based. The note with it: Homo sapiens, NFκB pathway reporter (secreted embryonic alkaline phosphatase, QUANTI-Blue, 620 nm), 24-hour or 48-hour assay duration not specified. On the procedure: STING pathway activation by the compounds described herein was measured using THP1-Dual™ cells. These cells are THP1 monocytes that have been modified to be reporters for the NFκB pathway (by inducing secreted embryonic alkaline phosphatase (SEAP) expression) and the IRF pathway (by inducing secreted luciferase (LUCIA)). Both of these pathways are activated by STING agonists in these cells.
THP1 Dualtm cells (obtained from Invivogen) are maintained in a cell growth medium that includes Roswell Park Memorial Institute medium (RPMI), 10% fetal calf serum (FCS), 100 U/ml Pen/Strep, 2 mM L-glut, 10 mM Hepes, and 1 mM sodium pyruvate. Prior to the assay, the cells were transferred to an assay medium that includes RPMI, 5% FCS, 100 U/ml Pen/Strep, 2 mM L-glut, 10 mM Hepes, and 1 mM sodium pyruvate. Cells were then counted and evaluated for viability by trypan blue exclusion assay.
The compounds of the present invention can be assayed using, for example, the following procedure. Compounds were dissolved in water or DMSO depending, for example, on their solubility in water or DMSO. […]
To carry out the secreted embryonic alkaline phosphatase reporter, 10 μL of cell supernatant was mixed with 90 μL of QUANTI-Blue in a flat-bottom 384 well plate. […] SEAP activity was measured using a spectrophotometer set at 620 nm. […] Luminescence of the wells was then measured.

In the case of `Nc1ncnc2c1ncn2[C@@H]1O[C@@H]2CNC(=S)N[C@H]3[C@@H](O)[C@H](n4cnc5c(N)ncnc54)O[C@@H]3CNC(=S)N[C@H]2[C@H]1O` [Compound 30, (2R,3R,3aS,7aR,9R,10R,10aS,14aR)-2,9-bis(6-amino-9H-purin-9-yl)-3,10-dihydroxydodecahydrodifuro[3,2-d:3′,2′-j][,3,7,9]tetraazacyclododecine-5,12(4H,6H)-dithione], the IC50 is 25.4 µM. This lies in the double-digit micromolar range. `Nc1ncnc2c1ncn2[C@@H]1O[C@@H]2CNC(=O)N[C@H]3[C@@H](O)[C@H](n4cnc5c(N)ncnc54)O[C@@H]3CNC(=O)N[C@H]2[C@H]1O` [Compound 31, (2R,3R,3aS,7aR,9R,10R,10aS,14aR)-2,9-bis(6-amino-9H-purin-9-yl)-3,10-dihydroxydodecahydrodifuro[3,2-d:3′,2′-j][1,3,7,9]tetraazacyclododecine-5, 12(4H,6H)-dione] returned a 50% inhibitory concentration (IC50) of 22.2 µM.

One may read the IC50 as the concentration that gives 50% inhibition.

Values taken from US20190345191A1, “CYCLIC DINUCLEOTIDE ANALOGS FOR TREATING CONDITIONS ASSOCIATED WITH STING (STIMULATOR OF INTERFERON GENES) ACTIVITY” (Innate Tumor Immunity, Inc., priority 2016, published 2019).
